The source made the active and inactive calls. No cut-off for these calls is given here.
Experiments:
Carbonic anhydrase 1 = Carbonic anhydrase 1 (Homo sapiens, UniProt P00915); assay: Binding affinity to human CA1 assessed as inhibition constant incubated for 6 hrs by phenol red dye based stopped flow CO2 hydration assay
[1] = target: Estrogen receptor beta (Homo sapiens) (UniProt Q92731); assay: Partial agonist activity at wild type human ERbeta in HEK-293T cells transfected with 3xERE-driven luciferase reporter plasmid by luciferase reporter gene assay; format: cell-based
Carbonic anhydrase 12 = Carbonic anhydrase 12 (Homo sapiens, UniProt O43570); assay: Binding affinity to human CA12 assessed as inhibition constant incubated for 6 hrs by phenol red dye based stopped flow CO2 hydration assay
Carbonic anhydrase 2 = Carbonic anhydrase 2 (Homo sapiens, UniProt P00918); assay: Binding affinity to human CA2 assessed as inhibition constant incubated for 6 hrs by phenol red dye based stopped flow CO2 hydration assay
Carbonic anhydrase 9 = Carbonic anhydrase 9 (Homo sapiens, UniProt Q16790)
Description: Binding affinity to human CA9 assessed as inhibition constant incubated for 6 hrs by phenol red dye based stopped flow CO2 hydration assay

Estrogen receptor beta (Homo sapiens), sequence (Q92731 whole entry): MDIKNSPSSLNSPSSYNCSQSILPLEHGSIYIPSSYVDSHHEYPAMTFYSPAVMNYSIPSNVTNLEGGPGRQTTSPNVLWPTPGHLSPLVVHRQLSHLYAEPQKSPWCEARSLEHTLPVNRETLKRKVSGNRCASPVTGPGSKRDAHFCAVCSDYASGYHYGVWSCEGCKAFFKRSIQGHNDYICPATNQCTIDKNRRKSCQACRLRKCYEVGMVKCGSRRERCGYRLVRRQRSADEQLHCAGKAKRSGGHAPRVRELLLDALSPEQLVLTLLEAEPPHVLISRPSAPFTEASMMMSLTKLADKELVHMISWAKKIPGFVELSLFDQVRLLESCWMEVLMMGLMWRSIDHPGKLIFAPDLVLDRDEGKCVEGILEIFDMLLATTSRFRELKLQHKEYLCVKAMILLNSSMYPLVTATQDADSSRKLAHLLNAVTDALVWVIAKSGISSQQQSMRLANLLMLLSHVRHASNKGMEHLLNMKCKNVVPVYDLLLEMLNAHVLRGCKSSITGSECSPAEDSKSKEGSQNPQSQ
Carbonic anhydrase 1, sequence (P00915 whole entry): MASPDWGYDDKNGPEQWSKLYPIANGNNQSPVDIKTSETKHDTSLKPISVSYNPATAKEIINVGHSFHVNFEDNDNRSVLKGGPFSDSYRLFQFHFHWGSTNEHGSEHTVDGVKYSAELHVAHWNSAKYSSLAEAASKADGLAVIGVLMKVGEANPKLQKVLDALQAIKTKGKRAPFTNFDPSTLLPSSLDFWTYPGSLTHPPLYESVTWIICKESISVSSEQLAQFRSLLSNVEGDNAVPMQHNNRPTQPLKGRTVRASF
Carbonic anhydrase 12, sequence (O43570 whole entry): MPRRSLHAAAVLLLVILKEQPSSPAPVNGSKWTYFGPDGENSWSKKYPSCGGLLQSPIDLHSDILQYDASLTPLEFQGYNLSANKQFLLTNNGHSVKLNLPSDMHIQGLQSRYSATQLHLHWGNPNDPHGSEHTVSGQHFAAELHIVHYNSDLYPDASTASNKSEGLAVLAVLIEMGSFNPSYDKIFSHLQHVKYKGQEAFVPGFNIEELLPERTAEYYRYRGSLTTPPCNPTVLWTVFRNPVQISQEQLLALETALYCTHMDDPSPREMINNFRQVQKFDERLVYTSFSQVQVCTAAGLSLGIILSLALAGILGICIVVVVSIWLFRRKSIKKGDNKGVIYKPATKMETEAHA

Ki (Carbonic anhydrase 1): 73.6 nM
Activity [1]: inactive
Ki (Carbonic anhydrase 12): 256 nM
Ki (Carbonic anhydrase 2): 2.2 nM
Ki (Carbonic anhydrase 9): 2090 nM
Compound: NS(=O)(=O)c1ccc2c(c1)C1C=CCC1C(c1ccccc1Cl)N2 (racemic)

From ChEMBL document CHEMBL5352473, “Design, synthesis, biological evaluation and crystal structure determination of dual modulators of carbonic anhydrases and estrogen receptors” (Eur J Med Chem, 2023)
